Results as given in US20180110796A1, “COMPOSITIONS AND METHODS FOR THE TREATMENT OF HBV INFECTION” (Spring Bank Pharmaceuticals, Inc., priority 2015, published 2018).

Tests used:
[1] = system: IFN-α, IFN-β, CXCL10, IL-6, ISG15, OAS1, RIG-I/NOD2 pathway transcripts; test: Host immune response gene transcripts in blood and liver by real time PCR (Example 2); type: in vivo, woodchuck (Marmota monax)
Method: Immune responses associated with Formula (IIa) treatment were determined by changes in RNA transcript levels of IFN-α, IFN-β, IFN-γ induced protein 10 (IP-10 or CXCL10), interleukin 6 (IL-6), interferon-induced 17 kDa protein (ISG15), and 2′-5′-oligoadenylate synthetase 1 (OAS1) in blood and liver using PCR techniques. Whole blood was collected into PAXgene blood tubes (Qiagen, Redwood City, Calif.) at pretreatment (week-1 and T0), during treatment (weeks 6 and 12), and during follow-up (week 18) and stored at −70° C. until use. Total RNA was isolated with on-column DNase I digestion using the PAXgene Blood miRNA Kit (Qiagen). Total RNA was further isolated from liver biopsy samples collected at pretreatment (week-1), during treatment (weeks 6 and 12), and at the end of the study (week 20) using the RNeasy Mini Kit (Qiagen) with on-column DNase I digestion using the RNase-Free DNase Set (Qiagen). Following reverse transcription of mRNA with the High Capacity cDNA Reverse Transcription Kit (Applied Biosystems) using oligo(dT), complementary (c) DNA samples were amplified on a 7500 Real Time PCR System instrument (Applied Biosystems) using TaqMan Gene Expression Master Mix (Applied Biosystems) and woodchuck-specific primers and probes (Supplementary Table 1). Woodchuck 18S rRNA expression was used to normalize target gene expression. Transcription levels of target genes were calculated as a fold-change relative to pretreatment level at week-1 (liver) or at T0 (blood) using the formula 2^−ΔΔCt. Samples from a subset of woodchucks from the LD and HD groups were analyzed for expression changes of genes involved in the RIG-I/NOD2 pathway induced by Formula (IIa), including RIG-I, NOD2, transmembrane protein 173 (TMEM173 or STING), interferon regulatory factor 3 (IRF3), and IRF7.

HBV = test: Dose-ranging study in the HBV transgenic mouse model; type: in vivo; details: once-daily oral 1 to 100 mg/kg/day for 14 days
[2] = system: woodchuck hepatitis virus (WHV); test: Formula (IIa) in combination with entecavir, sequential oral treatment of chronic WHV carrier woodchucks (Example 3); type: in vivo, woodchuck (Marmota monax)
Excerpt: Ten (10) woodchucks chronically infected with WHV were used. Woodchucks were born in captivity and were inoculated at 3 days of age with cWHV7P2a inoculum, then reared until 11 months of age. Prior to the study, woodchucks were confirmed as established chronic carriers of WHV based on established criteria including the presence of WHV surface antigen (WHsAg), antibody against […], and WHV DNA. Woodchucks used in the study were of both gender and approximately between 12 and 14 months of age at the start of the study.
Two (2) groups of five (5) chronic WHV carrier woodchucks each were used in the study:
Group 1 was orally treated for 4 weeks with ETV at a daily dose of 0.5 mg/kg starting at T0, followed by add-on treatment with Formula (IIa) for 12 weeks at a daily dose of 30 mg/kg. Woodchucks were then followed for a total of 24 weeks.
Group 2 was orally treated for 12 weeks with Formula (IIa) at a daily dose of 30 mg/kg starting at T0, followed by add-on treatment with ETV for 4 weeks at a daily dose of 0.5 mg/kg. Woodchucks were then also followed for a total of 24 weeks.
Formula (IIa) was supplied as a pre-weighed powder in individual containers. An amount of powder sufficient to treat all 10 pre-weighed woodchucks per day with Formula (IIa) was mixed directly with woodchuck diet powder (Dyets Inc., Bethlehem, Pa.) and then suspended with HPLC water. The drug was orally administered with a dose syringe at T0 (Group 2) or after 4 weeks of treatment with ETV (Group 1), and thereafter every day for 12 weeks (84 days). Drug dosing was then followed by an extra 2 ml of woodchuck liquid diet to ensure complete consumption of Formula (IIa).
ETV was provided as powder. An amount of powder sufficient to treat all 10 woodchucks per day was suspended in isotonic saline at a concentration of 0.5 mg/ml. A volume (ml) of drug solution equivalent to the body weight (kg) of an individual woodchuck was then mixed with approximately 3-5 ml of woodchuck liquid diet and administered orally with a dose syringe at T0 (Group 1) or after 12 weeks of treatment with Formula (IIa) (Group 2), and thereafter every day for 4 weeks (28 days). ETV dosing was followed by an extra 2 ml of woodchuck liquid diet to ensure complete consumption of drug.
Prior to administration of Formula (IIa) or ETV at T0, then weekly until the end of the study at week 24, whole blood samples were drawn from each woodchuck under ketamine/xylazine anesthesia for determinations of serum WHV DNA, WHsAg, and anti-WHs (see Summary Table below). […] Blood samples were kept at room temperature following collection and serum harvested upon observation of clot retraction. Harvested serum was transferred to microcentrifuge tubes and stored frozen at −70° C. until use.
The induction of an innate immune response in peripheral blood and liver of woodchucks by combination treatment with Formula (IIa) and ETV were determined via real time PCR-based assays. Whole blood samples were obtained prior to the start of treatment with Formula (IIa) at T0, and then at weeks 4, 10, 16, 20, and 24 (Group 1) or at weeks 6, 12, 16, 20, and 24 (Group 2) (see Summary Table below). Whole blood was drawn into PAXgene blood tubes at the indicated time points and stored at −70° C. until use. Total RNA was isolated from whole blood and treated with DNase using the PAXgene Blood miRNA Kit (Quiagen). This was followed by reverse transcription of mRNA into cDNA and amplification of host immune response genes by real time PCR. Woodchuck cytokine and interferon-stimulated genes included IFN-α, IFN-β, interleukin 6 (IL-6), 2′-5′-oligoadenylate synthetase 1 (OAS-1), interferon-induced 17 kDa protein (ISG15), and interferon gamma-induced protein 10 (IP-10or CXCL10). Woodchuck 18S rRNA expression was used to normalize target gene expression. […]

[3] = 30 mg/kg daily oral, week 12, Group 2 before add-on ETV

## COC1[C@@H](OP(=O)(OC[C@H]2O[C@@H](n3cnc4c(N)ncnc43)C[C@H]2O)SCOC(=O)OC(C)C)[C@@H](CO)O[C@H]1n1ccc(=O)[nH]c1=O (stereo partly shown) [Formula (IIa)]
[1]; 15 or 30 mg/kg, n=3 each
  activation of the RIG-I/NOD2 pathway (liver transcript levels of RIG-I, NOD2, TMEM173, IRF3): long-lasting activation
[1]; both dose groups, liver
  CXCL10 expression in liver: significantly induced
[1]; high dose 30 mg/kg, blood
  mRNA expression of type I IFNs (IFN-α, IFN-β) and ISGs (OAS1, ISG15) in blood versus pretreatment: significant induction
[1]; high dose group, liver
  expression of IFN-β, IL-6 and OAS1 in liver versus pretreatment: significantly increased expression
[1]; low and high doses, blood
  expression of IL-6 and CXCL10 in blood versus pretreatment: significantly induced
[1]; low dose group, liver
  expression of IFN-α in liver versus pretreatment: significantly induced
HBV
  liver HBV DNA: significant reduction
[2]; [3]
  decline of serum WHsAg until the end of Formula (IIa) treatment: 1.49 log 10
  reduction of mean serum WHV DNA from pretreatment level at the end of Formula (IIa) treatment: 3.54 log 10
[2]; Formula (IIa) 30 mg/kg, initial 6 weeks of treatment, Group 2
  weeks per approximately 1 log10 decline of serum WHV DNA: ~3 weeks
